Measured values taken from ChEMBL document CHEMBL5223061, “Mechanisms and inhibitors of nicotinamide N-methyltransferase” (RSC Med Chem, 2021).

Columns and labels:
[1] = Inhibition of monkey NNMT preincubated for 30 mins followed by substrate, cofactor addition and measured after 60 mins using nicotinamide as substrate and SAM as cofactor by fluorescence enzymatic assay; design: species or system Macaca mulatta
[2] = biological target: T1, Nicotinamide N-methyltransferase (Homo sapiens) (UniProt P40261); assay: Inhibition of recombinant human NNMT expressed in Escherichia coli BL21 (DE3) assessed as Kobs/[I] ratio and measured after 20 mins using nicotinamide as substrate and SAM as cofactor by MTase-Glo reagent based assay
T1 sequence (whole entry): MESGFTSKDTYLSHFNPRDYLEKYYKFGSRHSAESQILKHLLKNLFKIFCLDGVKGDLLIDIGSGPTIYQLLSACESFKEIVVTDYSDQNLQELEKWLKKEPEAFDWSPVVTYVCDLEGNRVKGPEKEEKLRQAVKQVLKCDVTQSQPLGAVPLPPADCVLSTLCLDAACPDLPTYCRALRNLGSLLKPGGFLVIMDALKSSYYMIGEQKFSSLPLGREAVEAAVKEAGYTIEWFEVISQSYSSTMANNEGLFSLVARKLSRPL

[3] = biological target: T1, Nicotinamide N-methyltransferase (Homo sapiens); assay: Inhibition of human NNMT at 30 uM preincubated for 30 mins followed by substrate, cofactor addition and measured after 60 mins using nicotinamide as substrate and SAM as cofactor by fluorescence enzymatic assay; conditions: time 90.0 min
[4] = biological target: T1, Nicotinamide N-methyltransferase (Homo sapiens); assay: Inhibition of NNMT (unknown origin) assessed as formation of MNA at 0.5 uM using nicotinamide as substrate and SAM as cofactor by fluorescence based assay
[5] = substrate: C[S+](CC[C@H](N)C(=O)[O-])C[C@H]1O[C@@H](n2cnc3c(N)ncnc32)[C@H](O)[C@@H]1O; assay: Binding affinity to recombinant human NNMT expressed in Escherichia coli BL21 (DE3) assessed as Km preincubated for 10 mins followed by SAM addition and measured after 10 mins by Michaelis-Menten analysis; conditions: time 20.0 min
[6] = substrate: NC(=O)c1cccnc1; assay: Binding affinity to recombinant human NNMT expressed in Escherichia coli BL21 (DE3) assessed as Km preincubated for 10 mins followed by NAM addition and measured after 10 mins by Michaelis-Menten analysis; conditions: time 20.0 min

COc1ccc(C(N)=O)cn1
IC50 [1]: 2.8 µM

Clc1ccncc1
Ratio [2]: 20 M⁻¹ min⁻¹

CNC(=O)c1ccc(OC)nc1
inhibition [3]: 20%

C=C(C)[C@@]12O[C@@]3(/C=C/C=C/CCCCC)O[C@@H]1[C@@H]1[C@@H]4O[C@]4(CO)[C@@H](O)[C@]4(O)C(=O)C(C)=C[C@H]4[C@@]1(O3)[C@H](C)[C@H]2OC(C)=O
inhibition [4]: 50%

NC(=O)c1cnccc1Cl
Ratio [2]: 80 M⁻¹ min⁻¹

B1: Nicotinamide N-methyltransferase (Homo sapiens), P40261 (protein)
chain: MESGFTSKDTYLSHFNPRDYLEKYYKFGSRHSAESQILKHLLKNLFKIFCLDGVKGDLLIDIGSGPTIYQLLSACESFKEIVVTDYSDQNLQELEKWLKKEPEAFDWSPVVTYVCDLEGNRVKGPEKEEKLRQAVKQVLKCDVTQSQPLGAVPLPPADCVLSTLCLDAACPDLPTYCRALRNLGSLLKPGGFLVIMDALKSSYYMIGEQKFSSLPLGREAVEAAVKEAGYTIEWFEVISQSYSSTMANNEGLFSLVARKLSRPL
Km [5]: 8.5 µM
Km [6]: 199 µM
